We go through 18 compounds from patent publication US9834542B2, “LXR modulators” (BRISTOL-MYERS SQUIBB COMPANY, priority 2013, dated 2017).

Each structure is given as a SMILES string.

The target in the test is T1, LXRβ (Homo sapiens, UniProt P55055).
T1 construct: Co-transfection expression plasmids, comprising full-length LXRα (pCMX-h LXRα[…] or LXRβ (pCMX-hLXRβ)); expressed in transfected cells; host or cells: CV-1 African Green Monkey Kidney Cells
T1 sequence (P55055 1-460): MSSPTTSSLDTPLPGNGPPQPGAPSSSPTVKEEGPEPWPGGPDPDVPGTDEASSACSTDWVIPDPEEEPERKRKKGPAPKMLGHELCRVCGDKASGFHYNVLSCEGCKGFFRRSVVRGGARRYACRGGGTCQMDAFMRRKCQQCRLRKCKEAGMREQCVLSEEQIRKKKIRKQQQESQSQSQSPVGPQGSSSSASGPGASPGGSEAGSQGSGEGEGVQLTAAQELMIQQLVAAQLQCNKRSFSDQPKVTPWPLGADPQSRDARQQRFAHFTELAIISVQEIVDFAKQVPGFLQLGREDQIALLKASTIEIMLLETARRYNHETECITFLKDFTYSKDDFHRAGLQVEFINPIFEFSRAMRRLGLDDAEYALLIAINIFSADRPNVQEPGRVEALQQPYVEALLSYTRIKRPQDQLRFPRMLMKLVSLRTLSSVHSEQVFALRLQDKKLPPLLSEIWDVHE
T1 sequence (P19793 1-462 partner): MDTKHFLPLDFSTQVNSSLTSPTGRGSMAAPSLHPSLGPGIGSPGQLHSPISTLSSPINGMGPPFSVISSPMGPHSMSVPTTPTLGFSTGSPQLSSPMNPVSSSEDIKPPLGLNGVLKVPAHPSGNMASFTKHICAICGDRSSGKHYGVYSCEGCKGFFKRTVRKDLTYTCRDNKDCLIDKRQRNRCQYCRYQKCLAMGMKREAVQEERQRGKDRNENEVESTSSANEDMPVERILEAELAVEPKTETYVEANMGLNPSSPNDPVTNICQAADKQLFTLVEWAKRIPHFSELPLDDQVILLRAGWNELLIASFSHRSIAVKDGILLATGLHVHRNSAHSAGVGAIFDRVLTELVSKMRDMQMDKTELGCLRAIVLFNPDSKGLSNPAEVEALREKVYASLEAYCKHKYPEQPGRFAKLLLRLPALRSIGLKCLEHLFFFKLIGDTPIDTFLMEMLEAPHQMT
Nature of the test: Co-transfection assay (LXRE luciferase reporter), LXRβ. Format: cell-based. More on the design: % Efficacy: concentration or dose not given beside the values. Conditions: for EC50: CV-1 cells transfected with pCMX-hLXRβ and LXREx1-Tk-Luciferase, 20 hours incubation; for Emax: read-out: % Efficacy. A digest of the protocol: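 CV-1 cells transiently co-transfected with full-length human LXRβ expression plasmid, LXREx1-Tk-luciferase reporter and β-galactosidase control, then exposed to compound for 20 h at 37 °C. Luciferase luminescence read; EC50 from 11-point, ½-log dose–response fit, efficacy relative to high-control agonist maximum.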
(A reporter such as luciferase makes a cellular process visible.)

The mark [1] stands for this setting: LXRβ co-transfection, relative to high control 1-(2,4-difluorobenzyl)-2-oxo-6-(4-phenoxyphenyl)-4-(trifluoromethyl)-1,2-dihydropyridine-3-carbonitrile.

By EC50 is commonly meant the concentration needed to bring the measured effect to its halfway point. Regarding `CS(=O)(=O)c1cccc(-c2ccc(-n3cc(C(F)(F)F)nc3C(F)F)c(-n3nncc3-c3ccc(OC(F)(F)F)cc3)c2)c1` [Example 226, 1-(4-(2-(difluoromethyl)-4-(trifluoromethyl)-1H-imidazol-1-yl)-3′-(methylsulfonyl)-[1,1′-biphenyl]-3-yl)-5-(4-(trifluoromethoxy)phenyl)-1H-1,2,3-triazole], the EC50 came to 0.677 µM. The Emax under setting [1] is 92%.
The corresponding values for `Cc1nc(C(F)F)cn1-c1ccc(-c2cc(F)c(CO)c(S(C)(=O)=O)c2)cc1-c1cnnn1Cc1ccc(Cl)cc1` [Example 248, (3′-(1-(4-chlorobenzyl)-1H-1,2,3-triazol-5-yl)-4′-(4-(difluoromethyl)-2-methyl-1H-imidazol-1-yl)-3-fluoro-5-(methylsulfonyl)-[1,1′-biphenyl]-4-yl)methanol] are 0.185 µM and 88%.
In turn, `Cc1ccc(C(C)c2cnnn2-c2cc(-c3cccc(S(C)(=O)=O)c3)ccc2-n2cc(C(F)(F)F)nc2C)cc1` (stereo not drawn) [Example 111, 5-[1-(4-methylphenyl)ethyl]-1-{3′-(methylsulfonyl)-4-[2-methyl-4-(trifluoromethyl)-1H-imidazol-1-yl]biphenyl-3-yl}-1H-1,2,3-triazole] had an EC50 of 0.93 µM. Moreover, under setting [1], the Emax worked out at 92%.
Turning to `Cc1cc(-c2cc(-c3cc(F)c(CO)c(S(C)(=O)=O)c3)ccc2-n2cc(C(F)(F)F)nc2C)n(-c2ccc3c(c2)OC(F)(F)O3)n1` [Example 299, (3′-(1-(2,2-difluorobenzo[d][1,3]dioxol-5-yl)-3-methyl-1H-pyrazol-5-yl)-3-fluoro-4′-(2-methyl-4-(trifluoromethyl)-1H-imidazol-1-yl)-5-(methylsulfonyl)biphenyl-4-yl)methanol], the concentration giving a half-maximal response (EC50) was determined as 0.017 µM. The Emax under setting [1] was 77%.
As for `Cc1nc(C(F)(F)F)cn1-c1ccc(-c2cc(F)c(CO)c(S(C)(=O)=O)c2)c(Cl)c1-n1nncc1-c1ccc(Cl)cc1` [Example 102, {2′-chloro-3′-[5-(4-chlorophenyl)-1H-1,2,3-triazol-1-yl]-3-fluoro-5-(methylsulfonyl)-4′-[2-methyl-4-(trifluoromethyl)-1H-imidazol-1-yl]biphenyl-4-yl}methanol], the response was half-maximal at 1.94 µM (EC50). Also, the Emax under setting [1] worked out at 57%.
The compound `Cc1nc(C(F)(F)F)cn1-c1ccc(-c2cccc(S(=O)(=O)C(C)C)c2)cc1-n1nncc1-c1ccc(OC(F)(F)F)cc1` [Example 98, 1-{3′-[(1-methylethyl)sulfonyl]-4-[2-methyl-4-(trifluoromethyl)-1H-imidazol-1-yl]biphenyl-3-yl}-5-{4-[(trifluoromethyl)oxy]phenyl}-1H-1,2,3-triazole] registered a half-maximal effective concentration (EC50) of 1.03 µM. Further, the Emax under setting [1] is 91%.
The like results for `CCc1nc(-c2cc(-c3cc(F)c(CO)c(S(C)(=O)=O)c3)ccc2-n2cc(C(F)(F)F)nc2C)c(-c2ccc3c(c2)OC(F)(F)O3)o1` [Example 479, (3′-(5-(2,2-difluorobenzo[d][1,3]dioxol-5-yl)-2-ethyloxazol-4-yl)-3-fluoro-4′-(2-methyl-4-(trifluoromethyl)-1H-imidazol-1-yl)-5-(methylsulfonyl)biphenyl-4-yl)methanol] were, in that order, 0.03 µM and 81%.
`Cc1nc(C(=O)C(C)C)cn1-c1ccc(-c2cccc(S(C)(=O)=O)c2)cc1-n1nncc1-c1ccc(OC(F)(F)F)cc1` [Example 234, 2-methyl-1-(2-methyl-1-(3′-(methylsulfonyl)-3-(5-(4-(trifluoromethoxy)phenyl)-1H-1,2,3-triazol-1-yl)-[1,1′-biphenyl]-4-yl)-1H-imidazol-4-yl)propan-1-one]: the 50% effective concentration (EC50) is 1.2 µM. For the same compound, the Emax under setting [1] came out at 75%.
Compound `CS(=O)(=O)c1cc(-c2cc(Cl)c(-n3cnc(C(F)(F)F)c3)c(-n3nncc3-c3ccc(OC(F)(F)F)cc3)c2)cc(F)c1CO` [Example 193, [3′-chloro-3-fluoro-5-(methylsulfonyl)-4′-[4-(trifluoromethyl)-1H-imidazol-1-yl]-5′-(5-{4-[(trifluoromethyl)oxy]phenyl}-1H-1,2,3-triazol-1-yl)biphenyl-4-yl]methanol] displayed an EC50 of 0.598 µM. Under setting [1], the Emax was 62%.
The like results for `Cc1nc(-c2cc(-c3cc(F)c(CO)c(S(C)(=O)=O)c3)ccc2-n2cc(C(F)(F)F)nc2C)c(-c2ccc(Cl)nc2Cl)o1` [Example 567, (3′-(5-(2,6-dichloropyridin-3-yl)-2-methyloxazol-4-yl)-3-fluoro-4′-(2-methyl-4-(trifluoromethyl)-1H-imidazol-1-yl)-5-(methylsulfonyl)-[1,1′-biphenyl]-4-yl)methanol] were, in that order, 0.111 µM and 93%.
With `Cc1nc(C(F)(F)F)cn1-c1ccc(-c2cc(F)c(CO)c(S(C)(=O)=O)c2)cc1-c1ncoc1-c1ccc(Cl)cc1` [Example 365, {3′-[5-(4-chlorophenyl)-1,3-oxazol-4-yl]-3-fluoro-5-(methylsulfonyl)-4′-[2-methyl-4-(trifluoromethyl)-1H-imidazol-1-yl]biphenyl-4-yl}methanol], the midpoint of the response, the EC50, lay at 0.307 µM. Further, under setting [1], the Emax was 81%.
As for `Cc1cc(-c2cnnn2-c2cc(-c3cccc(S(C)(=O)=O)c3)ccc2-n2cc(C(F)(F)F)nc2C)ccc1F` [Example 28, 5-(4-fluoro-3-methylphenyl)-1-{3′-(methylsulfonyl)-4-[2-methyl-4-(trifluoromethyl)-1H-imidazol-1-yl]biphenyl-3-yl}-1H-1,2,3-triazole], it took 0.589 µM to reach a half-maximal effect (EC50). In addition, the Emax under setting [1] stood at 117%.
On to `Cc1nc(-c2cc(-c3cccc(S(C)(=O)=O)c3)ccc2-n2cc(C(F)(F)F)nc2C)c(-c2cccc(OC(F)(F)C(F)(F)F)c2)o1` [Example 574, 2-methyl-4-(4-(2-methyl-4-(trifluoromethyl)-1H-imidazol-1-yl)-3′-(methylsulfonyl)-[1,1′-biphenyl]-3-yl)-5-(3-(perfluoroethoxy)phenyl)oxazole], for which the EC50 was 0.233 µM. Also, the Emax under setting [1] turned out to be 63%.
For `Cc1nc(-c2ccc3c(c2)OC(F)(F)O3)c(-c2cc(-c3ccc(CO)c(S(C)(=O)=O)c3)ccc2-n2cc(C(F)(F)F)nc2C)o1` [Example 616, (3′-(4-(2,2-difluorobenzo[d][1,3]dioxol-5-yl)-2-methyloxazol-5-yl)-4′-(2-methyl-4-(trifluoromethyl)-1H-imidazol-1-yl)-3-(methylsulfonyl)-[1,1′-biphenyl]-4-yl)methanol], a half-maximal effect (EC50) was put at 0.045 µM. Besides, the Emax under setting [1] is 96%.
With `Cc1nc(C(F)(F)F)cn1-c1ccc(-c2cccc(C(C)(C)C(N)=O)c2)cc1-n1nncc1-c1ccc(OC(F)(F)F)cc1` [Example 27, 2-methyl-2-{4′-[2-methyl-4-(trifluoromethyl)-1H-imidazol-1-yl]-3′-(5-{4-[(trifluoromethyl)oxy]phenyl}-1H-1,2,3-triazol-1-yl)biphenyl-3-yl}propanamide], the EC50 came out at 0.561 µM. The Emax under setting [1] came to 83%.
As for `Cc1nc(-c2cc(-c3cc(F)c(CO)c(S(C)(=O)=O)c3)ccc2-n2cc(C(C)O)nc2C)c(-c2ccc3c(c2)OC(F)(F)O3)o1` (single isomer, unassigned) [Example 516, 1-(1-(3-(5-(2,2-difluorobenzo[d][1,3]dioxol-5-yl)-2-methyloxazol-4-yl)-3′-fluoro-4′-(hydroxymethyl)-5′-(methylsulfonyl)-[1,1′-biphenyl]-4-yl)-2-methyl-1H-imidazol-4-yl)ethanol], the concentration giving a half-maximal response (EC50) stood at 0.27 µM. Besides, the “% Efficacy” value under setting [1] came out at 41%.
Take `Cc1nc(-c2cc(-c3cccc(S(C)(=O)=O)c3)ccc2-n2cc(C(F)(F)F)nc2C)c(-c2ccc(Cl)cc2F)o1` [Example 484, 5-(4-chloro-2-fluorophenyl)-2-methyl-4-(4-(2-methyl-4-(trifluoromethyl)-1H-imidazol-1-yl)-3′-(methylsulfonyl)biphenyl-3-yl)oxazole]: the response was half-maximal at 0.048 µM (EC50). For the same compound, the Emax under setting [1] was found to be 57%.
The like results for `Cc1nc(-c2cc(-c3cccc(S(C)(=O)=O)c3)ccc2-n2cc(CO)nc2C)c(-c2ccc3c(c2)OC(F)(F)O3)o1` [Example 369, (1-(3-(5-(2,2-difluorobenzo[d][1,3]dioxol-5-yl)-2-methyloxazol-4-yl)-3′-(methylsulfonyl)biphenyl-4-yl)-2-methyl-1H-imidazol-4-yl)methanol] were, in that order, 1.14 µM and 29%.
